Data on 7 compounds can be found in US20050245498A1, “Sterically-awkward beta-lactamase inhibitors” (priority 2002, published 2005).

The target of data set [1] is T1, AmpC β-lactamase (Escherichia coli, UniProt P00811). Conditions: hydrolysis by AmpC, 1.75 nM enzyme, 50 mM Tris pH 7. Here is the method:
Escherichia coli. AmpC β-lactamase was expressed and purified to homogeneity as previously described. The AmpC-catalyzed hydrolysis of the various β-lactams was monitored in an HP8453 UV/visible spectrophotometer. […] The reaction buffer used during the assays was 50 mM tris hydroxymethyl aminomethane hydrochloride (Fisher, Fair Lawn N.J.) at pH 7 in doubly-deionized water. kcat and KM values were determined at an enzyme concentration of 1.75 nM, with enzyme concentration determined, from more concentrated stocks, based on an ε280 of 0.098 μM^−1 cm^−1. […] Except for compounds synthesized for this study (ATMO-penicillin, ATMO-loracarbef), all compounds were used as supplied from the manufacturers without further purification.
Enzymology. The AmpC-catalyzed hydrolysis of the β-lactams cefotaxime, ATMO-penicillin, and ATMO-loracarbef (FIG. 1B) were monitored by UV-vis spectroscopy (Table 1).

The subject of data set [2] is E. coli not expressing AmpC β-lactamase. As to the kind of experiment: microbe, parasite or virus in culture. It is filed as cell-based. Conditions: for Minimum inhibitory concentration (MIC): E. coli not expressing AmpC β-lactamase, Luria Broth, about 5×10^5 CFU/mL. The protocol: (§1) Microbiology. Serial dilution assays in ligand culture were performed to examine the efficacy of these awkward β-lactams against clinically relevant pathogens grown in liquid culture (Table 3). The compounds were dissolved in KPi or tris hydroxymethyl aminomethane hydrochloride to a concentration of 20-50 mM, and serial dilutions were performed into Luria Broth (Difco, Detroit Mich.). Each broth solution was then inoculated with bacterial cells from an overnight culture that had been diluted to give an inoculum concentration of approximately 5×10^5 CFU/mL.

Data set [3] has as its system E. coli expressing AmpC β-lactamase. Briefly: microbe, parasite or virus in culture. Conditions: for Minimum inhibitory concentration (MIC): E. coli expressing AmpC β-lactamase, Luria Broth, about 5×10^5 CFU/mL. It is filed as cell-based. Here is the method: as §1
Data set [4] concerns the target T1, AmpC β-lactamase. Briefly: biochemical. Details: made in house. Conditions: for IC50 compared to cefotaxime (fold lower): relative to cefotaxime IC50.
Data set [5] has as its system CO/N=C(\C(=O)N[C@@H]1C(=O)N2[C@@H]1SC(C)(C)[C@@H]2C(=O)O)c1csc(N)n1. Briefly: purified protein, by the assay type. To be noted: other: hydrolysis by AmpC, 1.75 nM enzyme, 50 mM Tris pH 7.
The test system of data set [6] is CO/N=C(\C(=O)N[C@@H]1C(=O)N2C(C(=O)O)=C(COC(C)=O)CS[C@H]12)c1csc(N)n1. Briefly: purified protein, by the assay type. Conditions: other: hydrolysis by AmpC, 1.75 nM enzyme, 50 mM Tris pH 7.
The test system of data set [7] is CC(=O)OCC1=C(C(=O)O)N2C(=O)[C@@H](NC(=O)Cc3cccs3)[C@H]2SC1. As to the kind of experiment: purified protein, by the assay type. To be noted: other: hydrolysis by AmpC, 1.75 nM enzyme, 50 mM Tris pH 7.
Where [8] appears, read: Escherichia coli, read-out: Minimum inhibitory concentration (MIC).

≈ marks a conversion by molar mass, not a printed value. Where two headings read alike, the source gives them in different places.

T1 sequence (P00811 20-377): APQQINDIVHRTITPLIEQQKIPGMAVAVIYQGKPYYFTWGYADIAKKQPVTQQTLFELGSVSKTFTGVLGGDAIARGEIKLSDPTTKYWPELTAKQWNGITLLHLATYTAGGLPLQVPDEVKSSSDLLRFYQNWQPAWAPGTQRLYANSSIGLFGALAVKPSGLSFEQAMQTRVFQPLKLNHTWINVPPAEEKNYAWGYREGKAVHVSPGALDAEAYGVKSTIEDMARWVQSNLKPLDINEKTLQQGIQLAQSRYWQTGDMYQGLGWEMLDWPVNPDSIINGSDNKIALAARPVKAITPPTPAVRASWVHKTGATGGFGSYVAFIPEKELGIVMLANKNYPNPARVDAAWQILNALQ

As a reminder, the IC50 is the point on the concentration scale where inhibition reaches its midpoint. For `CON=C(C(=O)NC1C(=O)N2C(C(=O)O)=C(Cl)CCC12)c1csc(N)n1` (centres unmarked) [ATMO-loracarbef, 7-ATMO-3-chloro-carbacephem], in data set [1], the Kcat was found to be 0.0323 s⁻¹. Also, the “Minimum inhibitory concentration (MIC)” value is “¼” in data set [2] and 1 µg/mL (≈ 2.5 µM) in data set [3]. Moreover, the IC50 in data set [4] (against 200 μM nitrocefin, read-out: IC50) turned out to be 80 nM. Also, the “IC50 compared to cefotaxime (fold lower)” value in data set [4] is reported as 11 fold.

In data set [1], `CO/N=C(\C(=O)N[C@@H]1C(=O)N2[C@@H]1SC(C)(C)[C@@H]2C(=O)O)c1csc(N)n1` [ATMO-penicillin] showed a Kcat of less than 0.0045 s⁻¹. Besides, in data set [4], the midpoint of inhibition, the IC50, lay at 900 nM and the “IC50 compared to cefotaxime (fold lower)” value is “comparable to cefotaxime”.

Consider `CO/N=C(\C(=O)N[C@@H]1C(=O)N2C(C(=O)O)=C(COC(C)=O)CS[C@H]12)c1csc(N)n1` [Cefotaxime, cefotaxime], for which the “Minimum inhibitory concentration (MIC)” value in data set [2] is 1/128; in data set [3] it was 1/32. Moreover, inhibition in data set [4] was half-maximal at 800 nM (IC50).

Regarding `CC(=O)OCC1=C(C(=O)O)N2C(=O)[C@@H](NC(=O)Cc3cccs3)[C@H]2SC1` [Cephalothin, cephalothin], in data set [1], the Kcat was found to be 263 s⁻¹. Moreover, the results for the MIC in data set [2] (setting [8]) and in data set [3] (setting [8]) were 8 µg/mL (≈ 20.2 µM) and 64 µg/mL (≈ 161 µM), respectively.

For orientation: Km means the concentration of substrate that gives half-maximal velocity. Take `N[C@@H](C(=O)N[C@@H]1C(=O)N2C(C(=O)O)=C(Cl)CC[C@H]12)c1ccccc1` [Loracarbef, loracarbef]: the Kcat in data set [1] stood at 118.3 s⁻¹; in data set [1] (listed as loracarbef), 118 s⁻¹. In addition, the Km in data set [1] was determined as 23.7 µM. Also, the “Minimum inhibitory concentration (MIC)” value in data set [2] is 4 µg/mL (≈ 11.4 µM); in data set [3], 8 µg/mL (≈ 22.9 µM).

Consider `CC1(C)S[C@@H]2[C@H](NC(=O)Cc3ccccc3)C(=O)N2[C@H]1C(=O)O` [Penicillin G, penicillin G], for which, in data set [1], the Kcat is 133.1 s⁻¹ and the Km came out at 5.05 µM. The Kcat in data set [1] (listed as penicillin G) is 133 s⁻¹.

A word on the kcat: it is the maximal rate divided by the concentration of active sites. As to “AmpC β-lactamase (Escherichia coli K-12)”, the figures for the kcat in data set [5], in data set [6] and in data set [7] were less than 0.0045 s⁻¹, 0.0448 s⁻¹ and 262 s⁻¹, respectively. For the same compound, the Michaelis-Menten constant (Km) in data set [7] was determined as 31.3 µM.
